Source: US10428082B2, “Triazole derivatives of melampomagnolide B and methods of use thereof” (BioVentures, LLC, priority 2016, dated 2019)

Experiments:
Test in all cases: NCI 60 growth inhibition
Format in all cases: cell-based, human
[1] = system: A498; conditions: Homo sapiens; A498, Renal Cancer, Table 2
Protocol: (§1) The above triazole derivatives of melampomagnolide B were evaluated for growth inhibitory properties against an NCI panel of 60 human cancer cell lines derived from nine human cancer cell types, grouped into disease sub-panels that represent leukemia, lung, colon, central nervous system (CNS), melanoma, renal, ovary, breast, and prostate cancer cells. Growth inhibitory (GI50) effects were measured as a function of the variation of optical density as a percentage of control.

[2] = system: A549/ATCC; conditions: Homo sapiens, Non-Small Cell Lung Cancer, Table 2
Protocol: as §1

[3] = system: ACHN; conditions: Homo sapiens, Renal Cancer, Table 2
Protocol: as §1

[4] = system: BT-549; conditions: Homo sapiens; BT-549, Breast Cancer, Table 2
Protocol: as §1

[5] = system: CAKI-1; conditions: Homo sapiens; CAKI-1, Renal Cancer, Table 2
Protocol: as §1

[6] = system: CCRF-CEM; conditions: Homo sapiens, Leukemia, Table 2
Protocol: as §1

[7] = system: COLO 205; conditions: Homo sapiens; COLO 205, Colon Cancer, Table 2
Protocol: as §1

[8] = system: HCT-116; conditions: Homo sapiens; HCT-116, Colon Cancer, Table 2
Protocol: as §1

[9] = system: HL-60(TB); conditions: Homo sapiens; HL-60(TB), Leukemia, Table 2
Protocol: as §1

[10] = system: HOP-62; conditions: Homo sapiens; HOP-62, Non-Small Cell Lung Cancer, Table 2
Protocol: as §1

[11] = system: HOP-92; conditions: Homo sapiens; HOP-92, Non-Small Cell Lung Cancer, Table 2
Protocol: as §1

[12] = system: K-562; conditions: Homo sapiens, K562; K-562, Leukemia, Table 2
Protocol: as §1

[13] = system: KM12; conditions: Homo sapiens; KM12, Colon Cancer, Table 2
Protocol: as §1

[14] = system: M14; conditions: Homo sapiens; M14, Melanoma, Table 2
Protocol: as §1

[15] = system: MALME-3M; conditions: Homo sapiens, Melanoma, Table 2
Protocol: as §1

[16] = system: MCF7; conditions: Homo sapiens; MCF7, Breast Cancer, Table 2
Protocol: as §1

[17] = system: MDA-MB-231/ATCC; conditions: Homo sapiens, Breast Cancer, Table 2
Protocol: as §1

[18] = system: MDA-MB-435; conditions: Homo sapiens; MDA-MB-435, Melanoma, Table 2
Protocol: as §1

[19] = system: MOLT-4; conditions: Homo sapiens; MOLT-4, Leukemia, Table 2
Protocol: as §1

[20] = system: NCI-H226; conditions: Homo sapiens; NCI-H226, Non-Small Cell Lung Cancer, Table 2
Protocol: as §1

[21] = system: NCI-H23; conditions: Homo sapiens; NCI-H23, Non-Small Cell Lung Cancer, Table 2
Protocol: as §1

[22] = system: NCI-H460; conditions: Homo sapiens; NCI-H460, Non-Small Cell Lung Cancer, Table 2
Protocol: as §1

[23] = system: OVCAR-3; conditions: Homo sapiens; OVCAR-3, Ovarian Cancer, Table 2
Protocol: as §1

[24] = system: OVCAR-4; conditions: Homo sapiens; OVCAR-4, Ovarian Cancer, Table 2
Protocol: as §1

[25] = system: OVCAR-5; conditions: Homo sapiens; OVCAR-5, Ovarian Cancer, Table 2
Protocol: as §1

[26] = system: OVCAR-8; conditions: Homo sapiens; OVCAR-8, Ovarian Cancer, Table 2
Protocol: as §1

[27] = system: RPMI-8226; conditions: Homo sapiens; RPMI-8226, Leukemia, Table 2
Protocol: as §1

[28] = system: RXF 393; conditions: Homo sapiens, RXF 393, RXF 393, Renal Cancer, Table 2
Protocol: as §1

[29] = system: SF-268; conditions: Homo sapiens; SF-268, CNS Cancer, Table 2
Protocol: as §1

[30] = system: SF-295; conditions: Homo sapiens; SF-295, CNS Cancer, Table 2
Protocol: as §1

[31] = system: SF-539; conditions: Homo sapiens; SF-539, CNS Cancer, Table 2
Protocol: as §1

[32] = system: SK-MEL-2; conditions: Homo sapiens; SK-MEL-2, Melanoma, Table 2
Protocol: as §1

[33] = system: SK-MEL-5; conditions: Homo sapiens; SK-MEL-5, Melanoma, Table 2
Protocol: as §1

[34] = system: SN12C; conditions: Homo sapiens, Renal Cancer, Table 2
Protocol: as §1

[35] = system: SNB-75; conditions: Homo sapiens; SNB-75, CNS Cancer, Table 2
Protocol: as §1

[36] = system: SR; conditions: Homo sapiens, Leukemia, Table 2
Protocol: as §1

[37] = system: SW-620; conditions: Homo sapiens; SW-620, Colon Cancer, Table 2
Protocol: as §1

[38] = system: T-47D; conditions: Homo sapiens, T47D, Breast Cancer, Table 2
Protocol: as §1

[39] = system: TK-10; conditions: Homo sapiens; TK-10, Renal Cancer, Table 2
Protocol: as §1

[40] = system: UO-31; conditions: Homo sapiens; UO-31, Renal Cancer, Table 2
Protocol: as §1

| Compound | GI50 [1] [nM] | GI50 [2] [nM] | GI50 [3] [nM] | GI50 [4] [nM] | GI50 [5] [nM] | GI50 [6] [nM] | GI50 [7] [nM] | GI50 [8] [nM] | GI50 [9] [nM] | GI50 [10] [nM] | GI50 [11] [nM] | GI50 [12] [nM] | GI50 [13] [nM] | GI50 [14] [nM] | GI50 [15] [nM] | GI50 [16] [nM] | GI50 [17] [nM] | GI50 [18] [nM] | GI50 [19] [nM] | GI50 [20] [nM] | other results |
| --- | --- | --- | --- | --- | --- | --- | --- | --- | --- | --- | --- | --- | --- | --- | --- | --- | --- | --- | --- | --- | --- |
| C=C1C(=O)O[C@H]2[C@H]1CC/C(Cn1cc(-c3ccccc3)nn1)=C\CC[C@@]1(C)O[C@@H]21 [JVM 3-74, (1aR,7aS,10aS,10bS,E)-1a-Methyl-8-methylene-5-((4-phenyl-1H-1,2,3-triazol-1-yl)methyl)-2,3,6,7,7a,8,10a,10b-octahydrooxireno[2′,3′:9,10]cyclodeca[1,2-b]furan-9(1aH)-one] | 7800 | 5880 | 940 | 2650 | 1280 | 990 | 1080 | 1170 | 1490 | 7410 | 1420 | 1760 | 8480 | 1780 | 1170 | 1080 | 2000 | 2370 | 1290 | 4600 | GI50 [21]: 5380 nM; GI50 [22]: 7740 nM; GI50 [23]: 1400 nM; GI50 [24]: 3220 nM; GI50 [25]: 5700 nM; GI50 [26]: 2310 nM; GI50 [27]: 1710 nM; GI50 [28]: 1550 nM; GI50 [29]: 5630 nM; GI50 [30]: 7890 nM; GI50 [31]: 2010 nM; GI50 [32]: 5500 nM; GI50 [33]: 7320 nM; GI50 [34]: 4500 nM; GI50 [35]: 6210 nM; GI50 [36]: 1060 nM; GI50 [37]: 1500 nM; GI50 [38]: 1300 nM; GI50 [39]: 1210 nM; GI50 [40]: 870 nM |
| C=C1C(=O)O[C@H]2[C@H]1CC/C(Cn1cc(CCC)nn1)=C\CC[C@@]1(C)O[C@@H]21 [JVM 4-16, (1aR,7aS,10aS,10bS,E)-1a-Methyl-8-methylene-5((4-propyl-1H-1,2,3-triazol-1-yl)methyl)-2,3,6,7,7a,8,10a,10b-octahydrooxireno[2′,3′:9,10]cyclodeca[1,2-b]furan-9(1aH)-one] | 21500 | 22300 | 3810 | 14200 | 3910 | 3000 | 5220 | 3980 | 3530 | 14100 | 2940 | 3960 | 17600 | 3990 | 4700 | 3350 | 4220 | 10400 | 5540 | 12600 | GI50 [21]: 13600 nM; GI50 [22]: 21200 nM; GI50 [23]: 3960 nM; GI50 [24]: 9460 nM; GI50 [25]: 14100 nM; GI50 [26]: 13500 nM; GI50 [27]: 5520 nM; GI50 [28]: 4800 nM; GI50 [29]: 13700 nM; GI50 [30]: 18500 nM; GI50 [31]: 8870 nM; GI50 [32]: 16300 nM; GI50 [33]: 15300 nM; GI50 [34]: 12100 nM; GI50 [35]: 18500 nM; GI50 [36]: 2880 nM; GI50 [37]: 4230 nM; GI50 [38]: 4110 nM; GI50 [39]: 3860 nM; GI50 [40]: 11100 nM |
| C=C1C(=O)O[C@H]2[C@H]1CC/C(Cn1cc(-c3ccc(OC)cc3)nn1)=C\CC[C@@]1(C)O[C@@H]21 [JVM 4-24, (1aR,7aS,10aS,10bS,E)-5((4-(4-Methoxyphenyl)-1H-1,2,3-triazol-1-yl)methyl)-1a-methyl-8-methylene-2,3,6,7,7a,8,10a,10b-octahydrooxireno[2′,3′:9,10]cyclodeca[1,2-b]furan-9(1aH)-one] | 2350 | 10900 | 290 | 1310 | 1030 | 290 | 500 | 480 | 1170 | 10500 | 1130 | 1300 | 3510 | 1300 | 1670 | 420 | 1440 | 1140 | 1130 | 1990 | GI50 [21]: 2060 nM; GI50 [22]: 8450 nM; GI50 [23]: 560 nM; GI50 [24]: 1520 nM; GI50 [25]: 1710 nM; GI50 [26]: 2590 nM; GI50 [27]: 1870 nM; GI50 [28]: 700 nM; GI50 [29]: 2070 nM; GI50 [30]: 11000 nM; GI50 [31]: 340 nM; GI50 [32]: 1950 nM; GI50 [33]: 2100 nM; GI50 [34]: 1960 nM; GI50 [35]: 1470 nM; GI50 [36]: 250 nM; GI50 [37]: 490 nM; GI50 [38]: 1430 nM; GI50 [39]: 1420 nM; GI50 [40]: 1270 nM |
